Test results from PMC12571071, “Preventing neuropathy and improving anticancer chemotherapy with a carbazole-based compound” (Science Advances, 2025).
Where two headings read alike, the source gives them in different places.

What was measured:
[1] = test system: HeLa cells; test: HeLa cell viability (PrestoBlue) assay, 72 h; format: cell-based, human; settings: for GI50 FK866 with carbazole/GI50 FK866 / GI50 PTX/GI50 PTX with carbazole: ratio at the highest noncytotoxic dose of carbazole analog; for GI50 FK866 with carbazole/GI50 FK866: readout of NAMPT activation; for GI50 PTX/GI50 PTX with carbazole: synergy with PTX; for fold reduction of GI50 by addition of 12 μM Carba1: drug with 12 μM Carba1 vs drug alone
Procedure: The human HeLa cell line was tested negative for mycoplasma contamination. HeLa cells were grown in RPMI 1640 medium supplemented with penicillin/streptomycin (100 μg/ml) and 10% FBS and maintained in a humidified incubator at 37°C and 5% CO2.
Cell viability was analyzed using the colorimetric PrestoBlue assay. Cells were seeded in 96-well microplates at a density of 7500 cells per well, allowed to adhere for 24 hours, and treated for 72 hours with either DMSO or drugs at indicated concentrations. PrestoBlue (10 μl) was then added to each well, followed by a 30-min incubation. Fluorescence was measured using a FLUOstar Optima microplate reader (excitation, 544 nm; emission, 580 nm; BMG Labtech).

[2] = test system: adult mouse DRG neurons; test: Axonal degeneration index in dissociated adult mouse DRG neurons; settings: DIV 12 neurons, 72 h; Carba1 12 μM, PTX 50 nM, Cis 10 μM, Bort 100 nM
Procedure: After 4 days in vitro (DIV), at least 30% of medium was changed, and 10 μM AraC (cytosine β-D-arabino furanoside) was added to suppress nonneuronal growth. […] Neurons were fixed with 4% paraformaldehyde (PFA), washed with PBS, permeabilized with PBS–0.01% Triton X-100 for 15 min, and blocked with PBS–10% FBS for 1 hour before being stained overnight at 4°C with neurofilament antibody. Following PBS washes, secondary antibody (goat anti-chicken Alexa Fluor 488) was applied for 2 hours at room temperature (R.T.). Following additional PBS washes, coverslips were mounted with Fluoromount-G.
Images of random fields of dissociated adult DRG neurons, immunostained with antineurofilament or anti-TUBB3 antibodies, were captured using a 20× objective lens (Olympus IX81) and a Sensicam QE monochrome camera (Cooke Corporation). Degeneration masks were generated on the basis of the method described by Gerdts et al. ([66]). Axonal degeneration was quantified by measuring the total axonal area and fragmented axonal area in the same field, using degeneration masks as shown in fig. […] Images were processed in Fiji using global autothresholding, binarization, and the particle analyzer module to detect fragments (20 to 10,000 pixels), as previously described ([17]). The degeneration index was calculated as the ratio of fragmented axonal area to total axonal area.

[3] = test system: PTX-induced neuropathy; test: Rat model of PTX-induced peripheral neuropathy (von Frey, serum NfL, IENFD); format: in vivo
Procedure: Control animals received an equivalent volume of the vehicle (cremophor EL:ethanol, 1:1) diluted 1:4 in 0.9% NaCl.
Carba1 was injected intraperitoneally six times (50 mg/kg) on days 0, 1, 2, 4, 7, and 9, resulting in a cumulative dose of 300 mg/kg (Fig. 2F). For each injection, Carba1 was injected intraperitoneally at 50 mg/kg on days 0, 1, 2, 4, 7, and 9, for a cumulative dose of 300 mg/kg, using a stock solution (150 mg/ml; cremophor EL:ethanol, 1:1) diluted to 50 mg/ml in 0.9% NaCl. Control animals for Carba1 received the same volume of the vehicle [cremophor EL:ethanol (1:1) diluted 1:3 in 0.9% NaCl]. […] To prevent cross-exposure through feces and urine, treatment groups were randomized by cage, with each cage housing three animals.
Tactile allodynia, a common sensory disorder reported in animal models of CIPN ([56]), was assessed using an electronic von Frey test (Bioseb) ([68]). Rats were placed in plastic compartments on a wire floor and allowed to habituate for 15 min. […] The maximum force (in grams) causing withdrawal was recorded automatically. The average of two measurements, not differing by more than 10 g, was used as the nociceptive threshold ([68]). Rats were habituated to the compartments 3 days before the first injection, and the experimenter was blinded to treatment groups.
Blood samples were collected on day 15 in vials with a clot activator, left at R.T. for up to 1 hour before centrifugation at 4100 rpm at 20°C for 10 min. Serum was then collected, aliquoted, and stored at −80°C until analysis. To reduce batch effects, serum samples were randomized on assay plates. NfL concentration was measured in the serum using commercial kits (Simple Plex Ella ProteinSimple, USA; Rat NfL Kit ProteinSimple) ([27]).
Skin samples from both hind paws were fixed in 4% PFA overnight at 4°C, followed by sucrose cryoprotection (10, 20, and 30%) at 4°C overnight. After embedding in tissue freezing medium, the samples were at −80°C. Sections (20 μm) were cut using a cryostat at −17°C, washed with PBS for 5 min, and dried. The sections were blocked in PBS/0.2% Triton X-100/1%BSA for 1 hour and then incubated overnight at R.T. with anti-PGP9.5 antibody (1:400). After washing with PBS, sections were incubated with goat anti-rabbit Alexa Fluor488 secondary antibody for 2 hours, and the nuclei were stained with DAPI. Imaging was performed by acquiring 0.5 μm Z-stacks and exposure times for DAPI and fluorescein isothiocyanate set to 600 ms. Quantification followed the method described by Lauria et al. ([69]).

[4] = test system: HeLa cells xenografted in mice; test: HeLa tumor xenograft in nude mice; format: in vivo; settings: i.v. every 2 days, PTX 8 mg/kg, Carba1 60 mg/kg alone or with PTX
Procedure: Five-week-old NMRI nude mice (Janvier Labs) were implanted with 10 × 10^6 HeLa cells (200 μl in PBS) on the right flank. On day 6, the mean tumor volume was 120 ± 4 mm^3. […] Behavior and signs of pain were monitored daily. Body weight and tumor volume were measured two to three times per week using electronic calipers, with tumor volume (in cubic millimeters) calculated as length (millimeters)/2 × width^2 (square millimeters). Tumor growth inhibition was analyzed using GraphPad Prism with one-way analysis of variance (ANOVA) and Dunn’s multiple comparisons test for treatment versus vehicle. Mice were euthanized on day 20, when the vehicle group reached ethical limits. Blood samples were collected by intracardiac puncture in EDTA-coated tubes for differential blood counts and hemograms, outsourced to IDEXX BioAnalytics. For biochemical analysis, blood was collected in heparin-lithium tubes, and plasma was isolated by centrifugation and frozen at −80°C. Plasma was analyzed using MS Scan II (Melet Schloesing) and VET16 reagent rotors to measure markers of renal and hepatic function, metabolism, and nutritional and muscular status. Differential counts, hemograms, and biochemical data were analyzed with GraphPad Prism using Kruskal-Wallis test and Dunn’s multiple comparisons test.

[5] = test system: DRG explants; test: Mouse embryonic 3D DRG explants: axonal degeneration and myelination (MBP/TUBB3); format: cell-based; settings: 72 h; Carba1 12 μM or PTX 500 nM
Procedure: Embryonic DRG 3D explants were prepared from E13.5 mouse embryos and seeded at one explant/1.9 cm^2 on acid-treated, Matrigel-coated glass coverslips ([64], [65]). Explants were cultured at 37°C under 5% CO2 and high saturated in humidity. From DIV 0 to DIV 3, cultures were maintained in C-medium supplemented with 10% FBS, 1× GlutaMAX, D-glucose (4 g/liter), 2.5S nerve growth factor (NGF; 50 ng/ml), and 1% penicillin/streptomycin. From DIV 3 to DIV 7, neurobasal medium supplemented with 1× B27, 1× GlutaMAX, D-glucose (4 g/liter), 2.5S NGF (50 ng/ml), and 1% penicillin/streptomycin was used to promote axon development. From DIV 7 onward, differentiation medium [C-medium supplemented with 5 μM forskolin, ascorbic acid (50 μg/ml), and heparin (25 μg/ml)] was used to support glial cell maturation and myelination, with medium changes occurring every 2 days.
DRGs were fixed with 10% formalin for 20 min at R.T., washed with PBS, and permeabilized for 10 min with PBS–0.1% Triton X-100. Blocking was performed using a solution of 3% bovine serum albumin (BSA), 0.1% glycine, and 5% goat preimmune serum in PBS for 2 hours at R.T. DRGs were then washed in PBS and incubated overnight at 4°C with of anti-TUBB3 (1 μg/ml) and anti-MBP (1 μg/ml). After PBS washes, secondary antibodies (goat anti-mouse Alexa Fluor 488, 1:1000, and goat anti-rabbit Alexa Fluor 647, 1:1000) were applied for 1 hour at R.T. Explants were mounted with ProLong Gold antifade reagent with 4′,6-diamidino-2-phenylindole (DAPI).
Images of random fields of DRG explants, fixed in 4% formaldehyde and immunostained for TUBB3 and MBP, were captured with consistent acquisition times across samples, using a Zeiss AxioImager M2 microscope, equipped with a Hamamatsu Orca R2 camera. Image analysis was performed using Fiji software. The images were thresholded using the default global autothreshold method. For each field, MBP^+ segments were counted and normalized to the TUBB3^+ area.

[6] = cell viability, compound alone, read-out: GI50
[7] = Homo sapiens, HeLa cells, 72 h, PrestoBlue, drug applied alone, read-out: GI50, drug alone
[8] = rat serum, day 15, outliers removed

Row | GI50 [1, 6] [nM] | Compound | GI50 FK866 with carbazole/GI50 FK866 [1] | GI50 PTX/GI50 PTX with carbazole [1] | also measured
1 | > 25000 | CCOC(=O)Oc1ccc2[nH]c3c(C)cc(-n4c(C)ccc4C)c(C)c3c2c1 [Compound 15] | 1.1 | 1 | 
2 | > 25000 | Cc1cc(-n2cccc2)c(C)c2c1[nH]c1ccc(O)cc12 [Compound 11] | 1.3 | 1.5 | 
3 | 14000 | Cc1cc(-n2c(C)ccc2C)c(C)c2c1[nH]c1ccc(Cl)cc12 [Compound 12] | 1.09 | 0.9 | 
4 | 15000 | Cc1cc(-n2cccc2)c(C)c2c1[nH]c1cc(Cl)ccc12 [Compound 4] | 0.93 | 1.8 | 
5 |  | CC(=O)O[C@@]12CO[C@@H]1C[C@H](O)[C@@]1(C)C(=O)[C@H](O)C3=C(C)[C@@H](OC(=O)[C@H](O)[C@@H](NC(=O)OC(C)(C)C)c4ccccc4)C[C@@](O)([C@@H](OC(=O)c4ccccc4)[C@H]21)C3(C)C [DTX, docetaxel, reference compound] |  |  | fold reduction of GI50 by addition of 12 μM Carba1 ([1]; HeLa cells, 72 h): 3.8 fold; GI50 [1, 7]: 1.1 ± 0.2 nM
6 | 1000 | Cc1cc(-n2ccc(CO)c2)c(C)c2c1[nH]c1ccc(Cl)cc12 [Compound 8] | 1 | 3.8 | 
7 |  | CC(C)C[C@H](NC(=O)[C@H](Cc1ccccc1)NC(=O)c1cnccn1)B(O)O [Bort, bortezomib, reference compound] |  |  | GI50 [1, 7]: 35.9 ± 3.7 nM; GI50 ([1]; Homo sapiens, HeLa cells, 72 h, with 12 μM Carba1, read-out: GI50, drug in combination with Carba1): 40 ± 3.3 nM; axonal fragmentation / degeneration, agent alone [2]: induced significant axonal fragmentation
8 |  | C/C(=C\c1csc(C)n1)[C@@H]1C[C@@H]2O[C@]2(C)CCC[C@H](C)[C@H](O)[C@@H](C)C(=O)C(C)(C)[C@@H](O)CC(=O)O1 [Epo-B, epothilone-B, reference compound] |  |  | fold reduction of GI50 by addition of 12 μM Carba1 ([1]; HeLa cells, 72 h): 4.4 fold; GI50 [1, 7]: 0.5 ± 0.03 nM
9 | 1200 | Cc1cc(-n2ccc(C=O)c2)c(C)c2c1[nH]c1ccc(Br)cc12 [Compound 14] | 1 | 2.5 | 
10 |  | CC(=O)O[C@H]1C(=O)[C@@]2(C)[C@H]([C@H](OC(=O)c3ccccc3)[C@]3(O)C[C@H](OC(=O)[C@H](O)[C@@H](NC(=O)c4ccccc4)c4ccccc4)C(C)=C1C3(C)C)[C@]1(OC(C)=O)CO[C@@H]1C[C@@H]2O [PTX, paclitaxel, reference compound] |  |  | IENFD, mean ([3]; rat hind paw biopsies, day 15): 13.43 number/mm; IENFD, median ([3]; rat hind paw biopsies, day 15): 13.62 number/mm; NfL, mean [3, 8]: 96.00 pg/mL; NfL, median [3, 8]: 82.50 pg/mL; tactile allodynia (paw withdrawal threshold, electronic von Frey), agent alone ([3]; rat, i.p., PTX 5 mg/kg x4 or Carba1 50 mg/kg x6): developed a tactile allodynia; reduction of IENFD, agent alone ([3]; rat, vs controls): 30%; GI50 [1, 7]: 4.2 ± 0.4 nM; tumor size [4]: markedly reduced tumor size; axonal fragmentation / degeneration, agent alone [2]: induced robust axonal degeneration; MBP staining (axonal myelination), agent alone [5]: significant reduction in MBP staining
11 | 1000 | Cc1cc(-n2ccc(C=O)c2)c(C)c2c1[nH]c1ccc(Cl)cc12 [Compound 13] | 1 | 4.4 | 
12 |  | N.N.[Cl][Pt][Cl] [Cis, cisplatin, reference compound] |  |  | GI50 ([1]; HeLa cells, 72 h, PrestoBlue, drug applied alone, read-out: GI50, drug alone): 167 ± 30.8 nM
13 | > 25000 | COc1cccc(NCC(F)Cn2c3ccc(Cl)cc3c3c(C)c(-n4cccc4)cc(C)c32)c1 (stereo not drawn) [Compound 16] | 0.98 | 1.2 | 
14 | 25000 | CCOC(=O)Oc1ccc2[nH]c3c(C)cc(-n4cccc4)c(C)c3c2c1 [Compound 10] | 1.1 | 1.7 | 
15 | 10300 | CCNCc1ccn(-c2cc(C)c3[nH]c4ccc(Cl)cc4c3c2C)c1 [Compound 7] | 1 | 0.77 | 
16 | 12700 | Cc1cc(-n2ccc(CN(C)C)c2)c(C)c2c1[nH]c1ccc(Cl)cc12 [Compound 6] | 1 | 0.8 | 
17 | > 25000 | CCc1cccc2c1[nH]c1c(C)cc(-n3cccc3)c(C)c12 [Compound 3] | 1.5 | 1.5 | 
18 | > 25000 | Cc1cc(-n2c(C)ccc2C)c(C)c2c1[nH]c1ccc(Br)cc12 [Compound 9] | 0.99 | 1 | 
19 | 16000 | Cc1cc(-n2cccc2)c(C)c2c1[nH]c1ccc(Br)cc12 [Compound 2] | 2 | 1.6 | 
